Measurements reported in patent US20240210412A1, “SULFONYL-TRIAZOLE COMPOUNDS USEFUL AS LIGANDS AND INHIBITORS OF PROSTAGLANDIN REDUCTASE 2” (University of Virginia Patent Foundation, priority 2021, published 2024).

Key:
Assay in all cases: SILAC LC-MS ABPP
Assay type in all cases: cell-based
Details in all cases: 25 μM 2 h, live DM93 cells
Q14847 = biological target: T1, Q14847 (Homo sapiens, UniProt Q14847)
T1 construct: performing SuTEx compound screening directly in cells; endogenous in cells; host or cells: DM93 cells (SILAC), soluble fraction
T1 sequence (Q14847 whole entry): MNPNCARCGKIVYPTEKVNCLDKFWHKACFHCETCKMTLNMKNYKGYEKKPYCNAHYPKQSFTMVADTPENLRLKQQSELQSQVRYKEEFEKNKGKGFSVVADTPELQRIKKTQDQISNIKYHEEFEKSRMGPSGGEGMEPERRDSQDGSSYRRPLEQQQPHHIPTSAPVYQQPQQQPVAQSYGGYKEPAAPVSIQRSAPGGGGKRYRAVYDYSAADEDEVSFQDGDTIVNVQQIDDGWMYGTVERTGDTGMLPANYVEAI
Method in brief: (§1)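 In DM93 melanoma cells, heavy SILAC cultures take 25 μM SuTEx compound for 2 h at 37 °C while light cultures take DMSO. Both then receive HHS-475 alkyne probe at 100 μM for 2 h; probe-modified peptides are quantified by LC-MS/MS.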

O43776 = biological target: T2, O43776 (Homo sapiens, UniProt O43776)
T2 construct: endogenous in cells; host or cells: DM93
T2 sequence (O43776 whole entry): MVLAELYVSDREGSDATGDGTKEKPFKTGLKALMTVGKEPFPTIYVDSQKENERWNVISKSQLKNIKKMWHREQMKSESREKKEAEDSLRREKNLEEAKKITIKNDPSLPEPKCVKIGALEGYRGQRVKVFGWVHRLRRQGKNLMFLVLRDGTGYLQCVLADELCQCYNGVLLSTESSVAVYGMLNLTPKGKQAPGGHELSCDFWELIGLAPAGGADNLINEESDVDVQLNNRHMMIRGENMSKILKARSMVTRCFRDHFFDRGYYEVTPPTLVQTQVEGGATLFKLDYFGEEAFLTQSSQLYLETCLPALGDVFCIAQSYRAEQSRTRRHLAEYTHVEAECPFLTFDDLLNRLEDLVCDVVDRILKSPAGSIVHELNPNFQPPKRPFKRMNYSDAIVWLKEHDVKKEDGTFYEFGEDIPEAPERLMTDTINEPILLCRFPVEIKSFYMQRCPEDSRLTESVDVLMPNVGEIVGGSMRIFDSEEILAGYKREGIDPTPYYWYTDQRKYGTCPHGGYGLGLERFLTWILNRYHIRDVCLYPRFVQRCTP
Method in brief: as §1

P08238 = biological target: T3, P08238 (Homo sapiens, UniProt P08238)
T3 construct: endogenous in cells; host or cells: DM93 cells (SILAC)
Method in brief: as §1

P39019 = biological target: T4, P39019 (Homo sapiens, UniProt P39019)
T4 construct: Probe-modified proteins from the soluble fraction were conjugated to a desthiobiotin-azide tag; endogenous in cells; host or cells: DM93 (SILAC)
Method in brief: as §1

O43660 = biological target: T5, O43660 (Homo sapiens, UniProt O43660)
T5 construct: endogenous in cells; host or cells: DM93
T5 sequence (O43660 whole entry): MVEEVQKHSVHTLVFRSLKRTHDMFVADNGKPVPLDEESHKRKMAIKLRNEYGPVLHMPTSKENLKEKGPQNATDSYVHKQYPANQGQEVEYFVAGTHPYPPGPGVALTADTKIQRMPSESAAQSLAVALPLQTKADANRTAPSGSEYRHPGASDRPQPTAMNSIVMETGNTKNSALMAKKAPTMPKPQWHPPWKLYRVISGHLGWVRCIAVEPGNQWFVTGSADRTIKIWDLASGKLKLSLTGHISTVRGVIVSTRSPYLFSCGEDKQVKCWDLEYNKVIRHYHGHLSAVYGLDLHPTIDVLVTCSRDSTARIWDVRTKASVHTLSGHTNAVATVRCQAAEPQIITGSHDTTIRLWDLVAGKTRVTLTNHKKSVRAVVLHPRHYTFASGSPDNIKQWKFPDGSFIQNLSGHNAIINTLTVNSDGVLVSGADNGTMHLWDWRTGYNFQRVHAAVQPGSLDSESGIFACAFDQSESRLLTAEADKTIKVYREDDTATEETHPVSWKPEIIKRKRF
Method in brief: as §1

P50502 = biological target: T6, P50502 (Homo sapiens, UniProt P50502)
T6 construct: endogenous in cells; host or cells: DM93 cells (SILAC)
T6 sequence (P50502 whole entry): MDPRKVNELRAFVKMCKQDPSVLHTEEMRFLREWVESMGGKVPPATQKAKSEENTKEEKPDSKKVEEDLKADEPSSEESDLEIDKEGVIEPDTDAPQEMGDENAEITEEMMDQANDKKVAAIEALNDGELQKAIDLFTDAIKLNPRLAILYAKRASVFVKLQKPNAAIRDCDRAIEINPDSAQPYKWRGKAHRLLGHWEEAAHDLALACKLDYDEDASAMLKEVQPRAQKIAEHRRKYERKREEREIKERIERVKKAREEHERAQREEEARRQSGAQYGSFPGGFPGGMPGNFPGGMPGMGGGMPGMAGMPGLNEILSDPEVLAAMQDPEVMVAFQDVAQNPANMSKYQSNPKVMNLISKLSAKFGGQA
Method in brief: as §1

Q9UI12 = biological target: T7, Q9UI12 (Homo sapiens, UniProt Q9UI12)
T7 construct: endogenous in cells; host or cells: DM93 cells (SILAC)
T7 sequence (Q9UI12 whole entry): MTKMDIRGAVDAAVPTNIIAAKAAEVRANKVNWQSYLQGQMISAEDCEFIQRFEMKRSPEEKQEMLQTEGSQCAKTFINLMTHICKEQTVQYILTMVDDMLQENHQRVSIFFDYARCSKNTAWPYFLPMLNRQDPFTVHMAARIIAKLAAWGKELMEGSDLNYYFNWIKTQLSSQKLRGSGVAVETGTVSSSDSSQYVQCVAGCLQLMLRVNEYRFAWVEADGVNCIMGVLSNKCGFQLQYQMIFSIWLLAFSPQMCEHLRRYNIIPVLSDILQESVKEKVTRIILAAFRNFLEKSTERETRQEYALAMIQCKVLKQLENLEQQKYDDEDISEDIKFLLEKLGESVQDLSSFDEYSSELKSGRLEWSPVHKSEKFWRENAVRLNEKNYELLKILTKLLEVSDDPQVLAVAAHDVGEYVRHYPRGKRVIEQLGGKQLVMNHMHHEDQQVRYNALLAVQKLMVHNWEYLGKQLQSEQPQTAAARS
Method in brief: as §1

Q9H3P7 = biological target: T8, Q9H3P7 (Homo sapiens, UniProt Q9H3P7)
T8 construct: endogenous in cells; host or cells: DM93 cells (SILAC), treated live; soluble proteome analysed
Method in brief: as §1

Q99797 = biological target: T9, Q99797 (Homo sapiens, UniProt Q99797)
T9 construct: endogenous in cells; host or cells: DM93 cells (SILAC), treated live; soluble proteome analysed
Method in brief: as §1

O43823 = biological target: T10, O43823 (Homo sapiens, UniProt O43823)
T10 construct: endogenous in cells; host or cells: DM93
T10 sequence (O43823 whole entry): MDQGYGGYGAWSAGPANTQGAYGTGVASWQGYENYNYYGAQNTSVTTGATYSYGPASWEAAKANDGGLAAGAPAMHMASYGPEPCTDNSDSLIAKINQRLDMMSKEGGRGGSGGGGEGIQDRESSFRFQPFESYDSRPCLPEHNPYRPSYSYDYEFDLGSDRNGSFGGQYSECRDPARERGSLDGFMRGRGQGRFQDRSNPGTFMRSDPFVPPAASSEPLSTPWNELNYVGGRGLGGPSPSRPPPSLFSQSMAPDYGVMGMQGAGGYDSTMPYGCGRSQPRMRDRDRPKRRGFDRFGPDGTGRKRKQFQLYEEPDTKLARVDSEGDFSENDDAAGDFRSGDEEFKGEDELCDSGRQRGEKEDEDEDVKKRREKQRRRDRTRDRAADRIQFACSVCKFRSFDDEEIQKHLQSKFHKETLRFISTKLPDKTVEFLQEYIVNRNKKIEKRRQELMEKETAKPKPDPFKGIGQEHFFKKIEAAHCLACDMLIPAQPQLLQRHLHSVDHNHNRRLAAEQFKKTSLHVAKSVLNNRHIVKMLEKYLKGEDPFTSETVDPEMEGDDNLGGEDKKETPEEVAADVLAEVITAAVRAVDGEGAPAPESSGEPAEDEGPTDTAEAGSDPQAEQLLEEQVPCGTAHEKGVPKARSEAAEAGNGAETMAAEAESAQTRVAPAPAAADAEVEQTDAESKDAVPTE
Method in brief: as §1

Q14980 = biological target: T11, Q14980 (Homo sapiens, UniProt Q14980)
T11 construct: performing SuTEx compound screening directly in cells; endogenous in cells; host or cells: DM93 cells (SILAC), soluble fraction
Method in brief: as §1

P57081 = biological target: T12, P57081 (Homo sapiens, UniProt P57081)
T12 construct: Probe-modified proteins from the soluble fraction were conjugated to a desthiobiotin-azide tag; endogenous in cells; host or cells: DM93 cells (SILAC)
Method in brief: as §1

P05455 = biological target: T13, P05455 (Homo sapiens, UniProt P05455)
T13 construct: endogenous in cells; host or cells: DM93 cells (SILAC)
Method in brief: as §1

Q04837 = biological target: T14, Q04837 (Homo sapiens, UniProt Q04837)
T14 construct: performing SuTEx compound screening directly in cells; endogenous in cells; host or cells: DM93 cells (SILAC)
T14 sequence (Q04837 17-148): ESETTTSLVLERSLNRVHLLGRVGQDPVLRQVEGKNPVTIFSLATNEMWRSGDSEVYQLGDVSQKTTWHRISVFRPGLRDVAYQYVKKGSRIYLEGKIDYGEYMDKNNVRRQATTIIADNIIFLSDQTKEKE
Method in brief: as §1

Q13535 = biological target: T15, Q13535 (Homo sapiens, UniProt Q13535)
T15 construct: performing SuTEx compound screening directly in cells; endogenous in cells; host or cells: DM93 cells (SILAC), soluble fraction
Method in brief: as §1

P78527 = biological target: T16, P78527 (Homo sapiens, UniProt P78527)
T16 construct: performing SuTEx compound screening directly in cells; endogenous in cells; host or cells: DM93 cells (SILAC)
Method in brief: as §1

P15880 = biological target: T17, P15880 (Homo sapiens, UniProt P15880)
T17 construct: endogenous in cells; host or cells: DM93 cells (SILAC)
Method in brief: as §1

O14578 = biological target: T18, O14578 (Homo sapiens, UniProt O14578)
T18 construct: endogenous in cells; host or cells: DM93
T18 sequence (O14578 whole entry): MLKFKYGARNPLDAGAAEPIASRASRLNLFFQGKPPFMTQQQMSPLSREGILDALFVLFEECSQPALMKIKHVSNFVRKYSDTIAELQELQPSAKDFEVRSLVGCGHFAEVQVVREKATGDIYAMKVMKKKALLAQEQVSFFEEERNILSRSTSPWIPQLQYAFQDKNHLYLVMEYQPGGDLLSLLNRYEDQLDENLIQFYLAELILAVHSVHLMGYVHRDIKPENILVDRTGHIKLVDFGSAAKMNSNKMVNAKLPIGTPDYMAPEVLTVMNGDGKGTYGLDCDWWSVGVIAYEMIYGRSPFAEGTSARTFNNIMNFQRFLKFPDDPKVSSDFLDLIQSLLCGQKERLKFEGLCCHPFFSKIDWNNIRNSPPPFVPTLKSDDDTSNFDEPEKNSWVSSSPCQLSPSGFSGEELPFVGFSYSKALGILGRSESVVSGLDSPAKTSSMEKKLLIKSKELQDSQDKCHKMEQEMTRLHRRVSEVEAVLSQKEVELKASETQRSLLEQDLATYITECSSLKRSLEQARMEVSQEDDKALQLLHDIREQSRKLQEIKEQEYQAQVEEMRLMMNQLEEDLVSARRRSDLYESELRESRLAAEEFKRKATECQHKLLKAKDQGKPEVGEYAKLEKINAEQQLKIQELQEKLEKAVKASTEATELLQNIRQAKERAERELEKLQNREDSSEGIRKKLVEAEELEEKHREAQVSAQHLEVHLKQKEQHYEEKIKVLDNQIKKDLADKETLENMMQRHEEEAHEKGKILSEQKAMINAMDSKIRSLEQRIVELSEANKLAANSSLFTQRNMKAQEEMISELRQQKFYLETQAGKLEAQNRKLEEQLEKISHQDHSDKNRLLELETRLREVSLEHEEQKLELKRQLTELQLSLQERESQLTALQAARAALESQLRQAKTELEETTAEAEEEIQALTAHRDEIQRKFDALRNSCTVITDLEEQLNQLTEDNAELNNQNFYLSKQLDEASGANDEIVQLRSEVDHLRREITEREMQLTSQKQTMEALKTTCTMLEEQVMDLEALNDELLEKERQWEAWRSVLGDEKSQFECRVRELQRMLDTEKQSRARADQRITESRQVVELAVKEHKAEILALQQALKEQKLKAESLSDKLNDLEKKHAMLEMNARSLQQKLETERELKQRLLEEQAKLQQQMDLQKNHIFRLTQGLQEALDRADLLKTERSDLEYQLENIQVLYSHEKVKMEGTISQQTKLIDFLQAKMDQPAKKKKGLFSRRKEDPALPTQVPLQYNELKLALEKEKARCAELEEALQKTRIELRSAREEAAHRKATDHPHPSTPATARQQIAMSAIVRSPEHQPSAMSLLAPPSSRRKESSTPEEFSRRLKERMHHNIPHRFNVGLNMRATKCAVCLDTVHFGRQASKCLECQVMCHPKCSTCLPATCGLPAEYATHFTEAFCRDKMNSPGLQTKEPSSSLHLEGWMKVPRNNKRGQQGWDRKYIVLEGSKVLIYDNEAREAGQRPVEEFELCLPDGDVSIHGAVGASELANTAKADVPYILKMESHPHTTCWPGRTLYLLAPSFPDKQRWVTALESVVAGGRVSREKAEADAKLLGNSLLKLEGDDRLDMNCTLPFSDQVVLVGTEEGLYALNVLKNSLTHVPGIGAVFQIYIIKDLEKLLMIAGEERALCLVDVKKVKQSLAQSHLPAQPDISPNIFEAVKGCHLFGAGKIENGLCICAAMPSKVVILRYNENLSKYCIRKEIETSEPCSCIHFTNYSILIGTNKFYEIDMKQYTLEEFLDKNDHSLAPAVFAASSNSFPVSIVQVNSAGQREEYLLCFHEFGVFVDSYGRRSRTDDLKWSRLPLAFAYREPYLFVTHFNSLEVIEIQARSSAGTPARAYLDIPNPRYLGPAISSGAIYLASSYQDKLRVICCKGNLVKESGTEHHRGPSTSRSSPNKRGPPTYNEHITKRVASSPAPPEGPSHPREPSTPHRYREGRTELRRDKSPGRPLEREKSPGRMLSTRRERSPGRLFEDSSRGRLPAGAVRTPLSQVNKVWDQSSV
Method in brief: as §1

SMILES: O=C(NC1CC1)c1ccc(S(=O)(=O)n2cncn2)cc1 [HHS-0101, 4-((1H-1,2,4-triazol-1-yl)sulfonyl)-N-cyclopropylbenzamide]
- liganded tyrosine site 57 (Q14847): HHS0101.Y (tyrosine sites that showed >80% reductions (SR >5) in probe labeling in cells treated with compounds (liganded sites))
- liganded tyrosine site 45 (O43776): HHS0101.Y (tyrosine sites that showed >80% reductions (SR >5) in probe labeling in cells treated with compounds (liganded sites))
- liganded tyrosine site 430 (P08238): HHS0101.Y|HHS0201.Y|HHS0301.Y|HHS0401.Y (tyrosine sites that showed >80% reductions (SR >5) in probe labeling in cells treated with compounds (liganded sites))

SMILES: O=C(NCC1CC1)c1ccc(S(=O)(=O)n2cncn2)cc1 [HHS-0201, 4-((1H-1,2,4-triazol-1-yl)sulfonyl)-N-(cyclopropylmethyl)benzamide]
- liganded tyrosine site 54 (P39019): HHS0201.Y (tyrosine sites that showed >80% reductions (SR >5) in probe labeling in cells treated with compounds (liganded sites))
- liganded tyrosine site 82 (O43660): HHS0201.Y (tyrosine sites that showed >80% reductions (SR >5) in probe labeling in cells treated with compounds (liganded sites))
- liganded tyrosine site 213 (P50502): HHS0201.Y (tyrosine sites that showed >80% reductions (SR >5) in probe labeling in cells treated with compounds (liganded sites))
- liganded tyrosine site 163 (Q9UI12): HHS0201.Y|HHS0301.Y (tyrosine sites that showed >80% reductions (SR >5) in probe labeling in cells treated with compounds (liganded sites))
- liganded tyrosine site 293 (Q9H3P7): HHS0201.Y|HHS0301.Y (tyrosine sites that showed >80% reductions (SR >5) in probe labeling in cells treated with compounds (liganded sites))
- liganded tyrosine site 273 (Q99797): HHS0201.Y (tyrosine sites that showed >80% reductions (SR >5) in probe labeling in cells treated with compounds (liganded sites))

SMILES: O=C(NCc1ccccc1)c1ccc(S(=O)(=O)n2cncn2)cc1 [HHS-0401, 4-((1H-1,2,4-triazol-1-yl)sulfonyl)-N-benzylbenzamide]
- liganded tyrosine site 436 (O43823): HHS0401.Y (tyrosine sites that showed >80% reductions (SR >5) in probe labeling in cells treated with compounds (liganded sites))
- liganded tyrosine site 1836 (Q14980): HHS0401.Y (tyrosine sites that showed >80% reductions (SR >5) in probe labeling in cells treated with compounds (liganded sites))
- liganded tyrosine site 371 (P57081): HHS0401.Y (tyrosine sites that showed >80% reductions (SR >5) in probe labeling in cells treated with compounds (liganded sites))
- liganded tyrosine site 188 (P05455): HHS0401.Y (tyrosine sites that showed >80% reductions (SR >5) in probe labeling in cells treated with compounds (liganded sites))

SMILES: O=C(c1ccc(S(=O)(=O)n2cncn2)cc1)N1CCC(c2ccccc2)CC1 [HHS-0701, (4-((1H-1,2,4-triazol-1-yl)sulfonyl)phenyl)(4-phenylpiperidin-1-yl)methanone]
- liganded tyrosine site 101 (Q04837): HHS0701.Y (tyrosine sites that showed >80% reductions (SR >5) in probe labeling in cells treated with compounds (liganded sites))
- liganded tyrosine site 119 (Q04837): HHS0701.Y (tyrosine sites that showed >80% reductions (SR >5) in probe labeling in cells treated with compounds (liganded sites))
- liganded tyrosine site 2067 (Q13535): HHS0701.Y (tyrosine sites that showed >80% reductions (SR >5) in probe labeling in cells treated with compounds (liganded sites))

SMILES: O=C(NC1CCCCC1)c1ccc(S(=O)(=O)n2cncn2)cc1 [HHS-0301, 4-((1H-1,2,4-triazol-1-yl)sulfonyl)-N-cyclohexylbenzamide]
- liganded tyrosine site 701 (P78527): HHS0301.Y (tyrosine sites that showed >80% reductions (SR >5) in probe labeling in cells treated with compounds (liganded sites))
- liganded tyrosine site 250 (P15880): HHS0301.Y (tyrosine sites that showed >80% reductions (SR >5) in probe labeling in cells treated with compounds (liganded sites))
- liganded tyrosine site 818 (O14578): HHS0301.Y (tyrosine sites that showed >80% reductions (SR >5) in probe labeling in cells treated with compounds (liganded sites))
